Measured values from patent US20060100269A1, “Use of 10-aminoaliphatyl-dibenz[b,f]oxepines for the treatment of degenerative ocular disorders” (priority 2003, published 2006).

How the values were obtained:
[1] = system: retinal ganglion cells (RGCs); assay: crush of the rat optic nerve, RGC loss and apoptotic nuclei; format: in vivo; details: 0.1 mg/kg subcutaneously, assessed 18 days after optic nerve crush
[2] = system: retinal ganglion cells (RGCs); assay: transient retinal ischemia by selective ligature of ophthalmic vessels, RGC rescue; format: in vivo; details: adult Sprague-Dawley rats; 60 minutes ischemia causing 30% RGC death seven days after ischemia; intraperitoneal injection, 0.005 mg/kg
Protocol: In particular, in adult Sprague-Dawley rats, transient retinal ischemia induced by selective ligature of ophthalmic vessels for 60 minutes, causes a 30% RGC death seven days after ischemia.

## C#CCN(C)CC1=Cc2ccccc2Oc2ccccc21.O=C(O)/C=C\C(=O)O [N-(dibenz[b,f]oxepin-10-ylmethyl)-N-methyl-N-prop-2-ynylamine hydrogen maleate]
[1]
  increase in apoptotic nuclei: significantly reduces
  loss of RGCs: significantly reduces
[2]
  RGC rescue rate: 45%
